Data: US7217704B2, “LPA receptor agonists and antagonists and methods of use” (The University of Tennessee Research Foundation, priority 2003, dated 2007)
Entries after “also recorded” stand apart in the source; their conditions may differ. Read-outs that look alike come from different tables or passages of the source.

Key:
LPA2 [1] = target: T1, LPA2 (Homo sapiens, UniProt Q9HBW0); conditions: previously reported in Virag et al. (2003), cited from earlier work
T1 construct: expressed in transfected cells

LPA1 [2] = target: T2, LPA1 (Homo sapiens, UniProt Q92633); conditions: RH7777 cells expressing LPA1; previously reported in Virag et al. (2003); cited from earlier work
T2 construct: expressed in transfected cells

LPA3 [3] = target: T3, LPA3 (Homo sapiens, UniProt Q9UBY5); conditions: RH7777 cells expressing LPA3; previously reported in Virag et al. (2003); cited from earlier work
T3 construct: expressed in transfected cells
T3 sequence (Q9UBY5 1-353): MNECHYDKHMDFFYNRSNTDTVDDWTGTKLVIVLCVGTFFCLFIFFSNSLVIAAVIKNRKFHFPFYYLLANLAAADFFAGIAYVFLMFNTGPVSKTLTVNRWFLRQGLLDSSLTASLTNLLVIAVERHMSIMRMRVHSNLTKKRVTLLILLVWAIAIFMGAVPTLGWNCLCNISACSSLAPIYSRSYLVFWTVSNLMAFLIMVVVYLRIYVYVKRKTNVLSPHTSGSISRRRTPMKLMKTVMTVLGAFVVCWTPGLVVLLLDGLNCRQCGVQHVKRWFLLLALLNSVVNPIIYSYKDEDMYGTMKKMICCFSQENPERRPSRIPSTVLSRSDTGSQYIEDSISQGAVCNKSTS

IEC-6 cells = test: Camptothecin-induced DNA fragmentation (apoptosis) in IEC-6 cells, ELISA; type: cell-based; conditions: Camptothecin 20 μM, LPA and FAP12 at 10 μM
Description: The experimental procedure utilized was substantially the same as that reported in Deng et al. (2002) and Deng et al., (2003).
Basically, IEC-6 cells were grown in DMEM medium supplemented with 5% fetal bovine serum, insulin (10 μg/ml), gentamycin sulfate (50 μg/ml), and incubated at 37° C. in a humidified 90% air–10% CO2 atmosphere. Medium was changed every other day. Sub-confluent cells were washed twice and replaced by DMEM without serum the night before experiments.
Damage and IEC-6 cell apoptosis was induced via either γ-irradiation or chemotherapy. 20 Gy single dose of [^137Cs] source γ-irradiation was used in all experiments. […] In some experiments, LPA was added at different times before or after irradiation. Treatment with 20 μM camptothecin of IEC-6 cells induces DNA fragmentation as measured by the ELISA assay at 16 h after treatment. DNA fragmentation was quantified using the Cell Death Detection ELISA kit from Boehringer (Indianapolis, Ind.) according to the instructions of the manufacturer. Samples were run in triplicate. A duplicate of the sample was used to quantify protein concentration using the BCA kit from Pierce (Rockford, Ill.). DNA fragmentation was expressed as absorbance units per μg protein per minute.

LPA2 [4] = target: T1, LPA2; test: Ca2+ transients (agonism / inhibition of LPA response) in RH7777 cells stably expressing LPA2; type: cell-based; conditions: for Emax: RH7777, read-out: LPA2 (Emax)
Description: (§1) The culture medium (DMEM containing 10% FBS) was then replaced with modified Krebs solution (120 mM NaCl, 5 mM KCl, 0.62 mM MgSO4, 1.8 mM CaCl2, 10 mM HEPES, 6 mM glucose, pH 7.4) and the cells were serum starved for 6–8 hours (12 h for PC-3 cells). Cells were loaded with Fura-2 AM for 35 minutes in modified Krebs medium. The Fura-2 was removed before loading the plate in the FlexStation instrument by replacing the medium once again with 100 μl modified Krebs medium/well. Plates were incubated for 4 minutes in the instrument to allow for warming to 37° C. Changes in intracellular Ca^2+ concentration were monitored by measuring the ratio of emitted light intensity at 520 nm in response to excitation by 340 nm and 380 nm wavelength lights, respectively. Each well was monitored for 80–120 seconds. […] Time courses were recorded using the SoftMax Pro software (Molecular Devices, Sunnyvale, Calif.). Ca^2+ transients were quantified automatically by calculating the difference between maximum and baseline ratio values for each well.
(§2) Each FAP analog was tested for the ability to induce Ca^2+ transients in RH7777 cells transfected with LPA1-3 receptors (agonism), as well as the ability to inhibit LPAinduced Ca^2+ transients in the same cells (antagonism) (Table 3).

LPA3 [5] = target: T3, LPA3; test: Ca2+ transients (agonism / inhibition of LPA response) in RH7777 cells stably expressing LPA3; type: cell-based; conditions: for effect at LPA3 in words: Ca2+ transients
Description: as §1, §2

PC-3 cells = test: Ca2+ transients in PC-3 cells endogenously expressing LPA1-3; type: cell-based, human; conditions: for effect in PC-3 cells in words: Ca2+ transients; for Emax: PC-3, read-out: PC-3 (Emax)
Description: as §1
We tested the FAP analogs in PC-3 cells, which unlike the transfected RH7777 cells endogenously express LPA1-3 receptors.

LPA1 [6] = target: T2, LPA1; test: Ca2+ transients (agonism / inhibition of LPA response) in RH7777 cells stably expressing LPA1; type: cell-based; conditions: for effect at LPA1 in words: Ca2+ transients
Description: as §1, §2

PPARγ = target: T4, PPARγ (Homo sapiens, UniProt P37231); test: PPARγ activation in CV1 cells, PPRE-Acox-Rluc reporter gene assay; conditions: 10 μM test compound, 20 h
T4 sequence (P37231 1-505): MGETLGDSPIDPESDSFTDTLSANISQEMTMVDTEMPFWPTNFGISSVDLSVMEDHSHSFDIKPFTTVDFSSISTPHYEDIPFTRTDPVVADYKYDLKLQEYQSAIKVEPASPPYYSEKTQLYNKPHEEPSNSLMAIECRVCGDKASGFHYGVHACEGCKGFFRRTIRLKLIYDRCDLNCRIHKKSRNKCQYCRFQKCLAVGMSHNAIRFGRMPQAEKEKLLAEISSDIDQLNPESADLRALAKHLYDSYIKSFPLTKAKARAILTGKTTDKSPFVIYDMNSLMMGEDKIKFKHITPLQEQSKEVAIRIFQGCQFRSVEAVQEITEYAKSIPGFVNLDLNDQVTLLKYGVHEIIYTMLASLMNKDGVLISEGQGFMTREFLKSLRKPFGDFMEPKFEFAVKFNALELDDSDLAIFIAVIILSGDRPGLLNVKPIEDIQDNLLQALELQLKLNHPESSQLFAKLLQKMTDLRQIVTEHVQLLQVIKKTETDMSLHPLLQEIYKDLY
Description: Comparing the effects with the Rosiglitazone, a known PPARγ agonist, CV1 cells were treated with 1% DMSO or 10 μM of test compound dissolved in DMSO for 20 h. Luciferase and β-galactosidase activities (mean±SEM) were measured in the cell lysate (n=4). *P<0.05 and **P<0.01, significant differences over vehicle control.
The assay of PPARγ activation in CV1 cells was run as reported in Zhang et al. Briefly, CV-1 cells were plated in 96-well plates (5×10^3 cells per well) in Dulbecco's modified Eagle's medium supplemented with 10% fetal bovine serum. […] Samples were run in quadruplicate and the mean±standard errors were calculated. Data are representative of at least two independent transfections. Student's t-test was used for null hypothesis testing and P<0.05 was considered transfection, cells were treated with 1% FBS supplemented OptiMEMI (Invitrogen) containing DMSO or 10 μM test compound dissolved in DMSO for 20 h. Luciferase and β-galactosidase activities were measured with the Steady-Glo® Luciferase Assay significant (in the figures P<0.05 is denoted by * and P<0.01 is **).

[7] = Homo sapiens, PC-3, read-out: PC-3 IC50
[8] = inhibition of LPA-induced Ca2+ transients, PC-3 cells
[9] = induction of Ca2+ transients, RH7777 cells expressing LPA2, read-out: LPA2 EC50
[10] = inhibition of LPA-induced Ca2+ transients, RH7777 cells expressing LPA2, read-out: LPA2 IC50
[11] = induction of Ca2+ transients, RH7777 cells expressing LPA3, read-out: LPA3 EC50
[12] = inhibition of LPA-induced Ca2+ transients, RH7777 cells expressing LPA3, read-out: LPA3 (Ki)
[13] = inhibition of LPA-induced Ca2+ transients, RH7777 cells expressing LPA3, read-out: LPA3 IC50
[14] = inhibition of LPA-induced Ca2+ transients, PC-3 cells, read-out: PC-3 IC50
[15] = induction of Ca2+ transients, RH7777 cells expressing LPA1, read-out: LPA1 EC50
[16] = inhibition of LPA-induced Ca2+ transients, RH7777 cells expressing LPA1, read-out: LPA1 IC50

T2 sequence (Q92633 whole entry): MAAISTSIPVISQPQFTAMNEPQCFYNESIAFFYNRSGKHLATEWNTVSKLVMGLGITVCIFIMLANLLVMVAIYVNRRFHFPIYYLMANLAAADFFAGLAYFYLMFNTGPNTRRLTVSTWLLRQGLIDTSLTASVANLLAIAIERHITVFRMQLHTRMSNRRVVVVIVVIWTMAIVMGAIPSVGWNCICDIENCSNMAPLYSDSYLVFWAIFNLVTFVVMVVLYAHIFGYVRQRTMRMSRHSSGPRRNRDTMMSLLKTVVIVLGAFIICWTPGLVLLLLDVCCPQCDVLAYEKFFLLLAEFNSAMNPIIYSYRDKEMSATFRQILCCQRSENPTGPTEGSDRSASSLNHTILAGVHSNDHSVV
T1 sequence (Q9HBW0 whole entry): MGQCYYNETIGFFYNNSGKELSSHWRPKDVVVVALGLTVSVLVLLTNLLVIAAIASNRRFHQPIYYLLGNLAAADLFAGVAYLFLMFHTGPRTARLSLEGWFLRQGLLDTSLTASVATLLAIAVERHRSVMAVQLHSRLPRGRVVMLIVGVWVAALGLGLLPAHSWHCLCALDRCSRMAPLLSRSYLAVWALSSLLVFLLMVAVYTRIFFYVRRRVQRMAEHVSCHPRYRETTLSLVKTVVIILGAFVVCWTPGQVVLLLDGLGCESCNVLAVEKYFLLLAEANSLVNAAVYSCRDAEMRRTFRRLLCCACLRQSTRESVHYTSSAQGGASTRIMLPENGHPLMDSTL

CCCCCCCCCCOP(=O)(O)O [Compound 2a]
IC50 (LPA2 [1]; RH7777 cells expressing LPA2): > 30 µM | EC50 (LPA1 [2]): > 30 µM | IC50 (LPA1 [2]): > 30 µM | EC50 (LPA3 [3]): > 30 µM

CCCCCCCCCCCCOP(=O)(O)O [Compound 2b]
IC50 (LPA2 [1]; RH7777 cells expressing LPA2): > 30 µM | LPA2 (Emax) (LPA2 [1]; relative to LPA 18:1): 50% | EC50 (LPA1 [2]): > 30 µM | inhibition of Camptothecin-induced DNA fragmentation in words (IEC-6 cells): inhibited | EC50 (LPA3 [3]): > 30 µM | IC50 (LPA3 [3]): 0.128 µM | Ki (LPA3 [3]): 0.061 µM

CCCCCCCCCCCCCCOP(=O)(O)O [Compound 2c]
EC50 (LPA2 [1]; RH7777 cells expressing LPA2): > 30 µM | IC50 (LPA2 [1]; RH7777 cells expressing LPA2): > 30 µM | EC50 (LPA1 [2]): > 30 µM | EC50 (LPA3 [3]): > 30 µM

CCC=CCCCCCCCCOP(O)(O)=S [Compound 8e, Thiophosphoric acid O-dodec-9-enyl ester]
EC50 (LPA2 [4]): 0.677 µM | IC50 (LPA2 [4]): > 30 µM | Emax (LPA2 [4]): 100% | EC50 (LPA3 [5]): > 30 µM | IC50 (LPA3 [5]): 0.027 µM | Ki (LPA3 [5]): 0.014 µM | effect at LPA3 in words (LPA3 [5]; RH7777 cells expressing LPA3): equipotent antagonist as 8f | effect in PC-3 cells in words (PC-3 cells; PC-3 cells): both independent activation and inhibition of LPA-induced Ca^2+ transients | Emax (PC-3 cells; Homo sapiens): 27% | IC50 (PC-3 cells; [7]): 2.97 µM | Ki (PC-3 cells; [8]): 1.46 µM | EC50 (LPA1 [6]): > 30 µM | IC50 (LPA1 [6]): > 30 µM

CCCCC=CCCCCCCCCOP(O)(O)=S [Compound 8f, Thiophosphoric acid O-tetradec-9-enyl ester]
EC50 (LPA2 [4]): 0.48 µM | IC50 (LPA2 [4]): > 30 µM | Emax (LPA2 [4]): 150% | EC50 (LPA3 [5]): > 30 µM | IC50 (LPA3 [5]): 0.028 µM | Ki (LPA3 [5]): 0.014 µM | effect in PC-3 cells in words (PC-3 cells; PC-3 cells): both independent activation and inhibition of LPA-induced Ca^2+ transients | Emax (PC-3 cells; Homo sapiens): 40% | IC50 (PC-3 cells; [7]): 0.938 µM | Ki (PC-3 cells; [8]): 0.397 µM | EC50 (LPA1 [6]): > 30 µM | IC50 (LPA1 [6]): > 30 µM | effect at LPA1 in words (LPA1 [6]; RH7777 cells expressing LPA1): no effect on the LPA-induced Ca^2+ mobilization

CCCCCCCCCCP(=O)(O)O [Compound 9a, n-decyl-phosphonate]
EC50 (LPA2 [4]; [9]): > 30 µM | IC50 (LPA2 [4]; [10]): > 30 µM | EC50 (LPA3 [5]; [11]): > 30 µM | Ki (LPA3 [5]; [12]): 0.068 µM | IC50 (LPA3 [5]; [13]): 1.2 µM | Ki (PC-3 cells; [8]): 1.5 µM | IC50 (PC-3 cells; [14]): 3.12 µM | EC50 (LPA1 [6]; [15]): > 30 µM | IC50 (LPA1 [6]; [16]): > 30 µM

CCCCCCCCCCCCP(=O)(O)O [Compound 9b, n-dodecyl-phosphonate]
EC50 (LPA2 [4]; [9]): > 30 µM | IC50 (LPA2 [4]; [10]): > 30 µM | EC50 (LPA3 [5]; [11]): > 30 µM | Ki (LPA3 [5]; [12]): 0.303 µM | IC50 (LPA3 [5]; [13]): 0.654 µM | Ki (PC-3 cells; [8]): 1.27 µM | IC50 (PC-3 cells; [14]): 2.64 µM | EC50 (LPA1 [6]; [15]): > 30 µM | IC50 (LPA1 [6]; [16]): > 30 µM

CCCCCCCCCCCCCCP(=O)(O)O [Compound 9c, n-tetradecyl-phosphonate]
effect at LPA2 in words (LPA2 [4]; Ca2+ transients, RH7777 cells expressing LPA2): IC50 values in the micromolar range | EC50 (LPA2 [4]; [9]): > 30 µM | Ki (LPA2 [4]; inhibition of LPA-induced Ca2+ transients, RH7777 cells expressing LPA2): 3.55 µM | IC50 (LPA2 [4]; [10]): 5.5 µM | effect at LPA3 in words (LPA3 [5]; RH7777 cells expressing LPA3): IC50 values in the micromolar range | EC50 (LPA3 [5]; [11]): > 30 µM | Ki (LPA3 [5]; [12]): 1.12 µM | IC50 (LPA3 [5]; [13]): 3.1 µM | Ki (PC-3 cells; [8]): 4.62 µM | IC50 (PC-3 cells; [14]): 9.67 µM | effect at LPA1 in words (LPA1 [6]; RH7777 cells expressing LPA1): IC50 values in the micromolar range | EC50 (LPA1 [6]; [15]): > 30 µM | IC50 (LPA1 [6]; [16]): ~10 µM

CCCCCCCCCCCCCCCCCCP(=O)(O)O [Compound 9d, n-octadecyl-phosphonate]
EC50 (LPA2 [4]; [9]): > 30 µM | IC50 (LPA2 [4]; [10]): > 30 µM | EC50 (LPA3 [5]; [11]): > 30 µM | IC50 (LPA3 [5]; [13]): > 30 µM | EC50 (PC-3 cells; induction of Ca2+ transients, PC-3 cells, read-out: PC-3 EC50): > 30 µM | IC50 (PC-3 cells; [14]): > 30 µM | EC50 (LPA1 [6]; [15]): > 30 µM | IC50 (LPA1 [6]; [16]): > 30 µM

CCCCCCCC/C=C\CCCCCCCC(=O)OC[C@@H](COP(O)(O)=S)OC [OMPT]
PPARγ activation (PPRE-Acox-Rluc reporter) in words (PPARγ): can activate PPRE-Acox-Rluc reporter

lysophosphatidic acid [LPA]
inhibition of Camptothecin-induced DNA fragmentation in words (IEC-6 cells): inhibited; also recorded: dose-dependently inhibit DNA fragmentation
